Measurements as given in ChEMBL document CHEMBL1201862, “PubChem BioAssay data set” (2004).
Values belong to the compound of their own block, whether it stands above or below them. Calls of active or inactive are those of the source.

How the values were obtained:
BJ = assay: cytotoxicity toward BJ-TERT-LT-ST fibroblasts, dose response, cell-based, RAS-independent, luminescence (AID 1935); type: functional; settings: Homo sapiens;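 further: BJ fibroblasts immortalized with TERT plus LT and ST oncogenes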
[1] = target: Sphingosine 1-phosphate receptor 1 (Homo sapiens, UniProt P21453); type: functional;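 further: Tango beta-arrestin reporter U2OS cells stimulated with S1P near its EC80; inhibitor potency meaning antagonism of receptor activation by the natural agonist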
[2] = target: Serine/threonine-protein kinase BRSK1 (Homo sapiens, UniProt Q8TDC3); type: functional;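 further: measured within a kinome-wide kinase panel, with the target listed as KIAA1811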
[3] = target: Tyrosine-protein kinase Srms (Homo sapiens, UniProt Q9H3Y6); type: functional;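 further: SRMS measured as one member of a kinome-wide kinase profiling panel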
[4] = target: Tyrosine-protein kinase BTK (Homo sapiens, UniProt Q06187); type: functional
[5] = target: Ribosomal protein S6 kinase alpha-3 (Homo sapiens, UniProt P51812); type: functional;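 further: measured within a kinome-wide profiling panel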
[6] = target: Fibroblast growth factor receptor 3 (Homo sapiens, UniProt P22607); type: functional
[7] = target: 3-phosphoinositide-dependent protein kinase 1 (Homo sapiens, UniProt O15530); type: functional;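 further: value comes from the Navigating the Kinome panel, PDPK1 member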
[8] = target: Proto-oncogene tyrosine-protein kinase Src (Homo sapiens, UniProt P12931); type: functional;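 further: SRC entry within a kinome-wide kinase profiling panel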
[9] = target: cGMP-dependent protein kinase 1 (Homo sapiens, UniProt Q13976); type: functional;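 further: value from a kinome panel screen with PRKG1 as the panel member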
[10] = target: Serine/threonine-protein kinase pim-1 (Homo sapiens, UniProt P11309); type: functional
[11] = target: Receptor tyrosine-protein kinase erbB-2 (Homo sapiens, UniProt P04626); assay: Navigating the Kinome. Panel member name: ERBB2; type: functional
[12] = target: Tyrosine-protein kinase ITK/TSK (Homo sapiens, UniProt Q08881); type: functional;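 further: affinity for ITK measured as one member of a broad kinase panel profiling binding across the kinome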
[13] = target: Mitogen-activated protein kinase 8 (Homo sapiens, UniProt P45983); type: functional;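 further: value comes from one member of a kinome-wide kinase profiling panel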
Aurora kinase B = Aurora kinase B (Homo sapiens, UniProt Q96GD4); type: functional
Hexokinase HKDC1 = target: T1, Hexokinase HKDC1 (Homo sapiens, UniProt Q2TB90); assay: HKDC1 hexokinase inhibitors, dose response, biochemical, W721R variant (AID 504729); type: functional
T1 sequence (Q2TB90 whole entry): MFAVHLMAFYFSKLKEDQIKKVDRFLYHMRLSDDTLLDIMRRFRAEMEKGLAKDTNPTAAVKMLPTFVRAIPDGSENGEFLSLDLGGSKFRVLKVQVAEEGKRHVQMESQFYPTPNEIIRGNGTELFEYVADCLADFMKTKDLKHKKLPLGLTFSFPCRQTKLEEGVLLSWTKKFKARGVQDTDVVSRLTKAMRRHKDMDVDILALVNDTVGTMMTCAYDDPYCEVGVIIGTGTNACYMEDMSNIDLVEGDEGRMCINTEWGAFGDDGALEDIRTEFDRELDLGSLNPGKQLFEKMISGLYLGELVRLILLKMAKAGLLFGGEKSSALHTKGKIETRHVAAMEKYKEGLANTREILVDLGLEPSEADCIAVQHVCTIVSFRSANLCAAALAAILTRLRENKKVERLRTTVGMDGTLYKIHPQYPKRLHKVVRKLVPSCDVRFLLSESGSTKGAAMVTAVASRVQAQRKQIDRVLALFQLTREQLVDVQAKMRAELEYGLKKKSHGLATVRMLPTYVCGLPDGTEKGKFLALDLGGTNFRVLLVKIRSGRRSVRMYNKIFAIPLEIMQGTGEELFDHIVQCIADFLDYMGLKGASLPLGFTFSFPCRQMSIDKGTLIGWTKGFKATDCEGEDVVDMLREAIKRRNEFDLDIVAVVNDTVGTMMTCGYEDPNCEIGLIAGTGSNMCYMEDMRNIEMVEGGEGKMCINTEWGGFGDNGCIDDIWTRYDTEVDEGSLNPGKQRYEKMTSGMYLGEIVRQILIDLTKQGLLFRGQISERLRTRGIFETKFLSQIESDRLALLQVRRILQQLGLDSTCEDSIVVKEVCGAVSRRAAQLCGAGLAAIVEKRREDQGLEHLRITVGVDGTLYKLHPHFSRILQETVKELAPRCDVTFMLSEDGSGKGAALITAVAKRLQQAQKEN

HEK293 = assay: NOD2 signaling inhibitors in MDP-stimulated cells, cell-based, uHTS, luminescence (AID 2001); type: functional; settings: Homo sapiens

Serine/threonine-protein kinase pim-1, sequence (P11309 whole entry): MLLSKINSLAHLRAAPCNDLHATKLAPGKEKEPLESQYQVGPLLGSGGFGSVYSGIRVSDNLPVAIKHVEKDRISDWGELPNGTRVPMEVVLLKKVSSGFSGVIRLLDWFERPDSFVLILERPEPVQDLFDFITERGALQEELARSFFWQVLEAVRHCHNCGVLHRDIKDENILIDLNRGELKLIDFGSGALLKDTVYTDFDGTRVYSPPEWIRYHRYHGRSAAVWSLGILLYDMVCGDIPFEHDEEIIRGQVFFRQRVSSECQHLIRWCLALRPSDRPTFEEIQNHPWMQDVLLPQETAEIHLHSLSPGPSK
Serine/threonine-protein kinase BRSK1, sequence (Q8TDC3 whole entry): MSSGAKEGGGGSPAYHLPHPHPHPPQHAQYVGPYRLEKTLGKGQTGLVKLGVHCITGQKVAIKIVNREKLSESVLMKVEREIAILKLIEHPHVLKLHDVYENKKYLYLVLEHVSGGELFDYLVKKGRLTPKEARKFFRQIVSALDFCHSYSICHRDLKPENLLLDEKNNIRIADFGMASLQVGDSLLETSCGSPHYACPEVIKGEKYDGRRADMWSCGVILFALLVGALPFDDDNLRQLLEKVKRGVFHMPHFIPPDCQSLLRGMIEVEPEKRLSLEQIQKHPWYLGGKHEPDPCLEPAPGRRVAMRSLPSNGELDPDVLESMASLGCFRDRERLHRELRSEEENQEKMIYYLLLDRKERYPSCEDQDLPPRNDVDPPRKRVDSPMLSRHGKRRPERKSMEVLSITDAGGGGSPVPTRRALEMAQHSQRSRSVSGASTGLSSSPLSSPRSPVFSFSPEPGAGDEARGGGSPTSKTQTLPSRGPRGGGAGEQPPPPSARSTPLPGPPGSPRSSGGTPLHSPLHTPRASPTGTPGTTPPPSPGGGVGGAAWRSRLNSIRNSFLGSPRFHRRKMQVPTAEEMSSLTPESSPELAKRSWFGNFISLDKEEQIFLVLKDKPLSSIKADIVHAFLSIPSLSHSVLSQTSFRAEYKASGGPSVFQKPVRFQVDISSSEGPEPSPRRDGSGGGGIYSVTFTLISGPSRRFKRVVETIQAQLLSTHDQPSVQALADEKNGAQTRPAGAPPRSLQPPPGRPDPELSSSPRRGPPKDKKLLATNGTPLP
Tyrosine-protein kinase Srms, sequence (Q9H3Y6 whole entry): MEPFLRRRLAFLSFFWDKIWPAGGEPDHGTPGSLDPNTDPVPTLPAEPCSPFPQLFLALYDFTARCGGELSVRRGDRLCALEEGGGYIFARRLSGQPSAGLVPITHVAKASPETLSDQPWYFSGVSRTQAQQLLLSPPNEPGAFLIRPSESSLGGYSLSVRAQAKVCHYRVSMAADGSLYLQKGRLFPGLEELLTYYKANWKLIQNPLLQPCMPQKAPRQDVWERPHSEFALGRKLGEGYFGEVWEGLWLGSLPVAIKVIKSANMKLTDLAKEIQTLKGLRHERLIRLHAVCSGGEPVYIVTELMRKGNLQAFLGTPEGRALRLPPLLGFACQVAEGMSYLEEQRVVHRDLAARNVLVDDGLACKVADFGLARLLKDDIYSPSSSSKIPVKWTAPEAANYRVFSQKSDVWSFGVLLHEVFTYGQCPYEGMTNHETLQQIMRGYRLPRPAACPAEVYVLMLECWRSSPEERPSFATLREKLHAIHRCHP
cGMP-dependent protein kinase 1, sequence (Q13976 whole entry): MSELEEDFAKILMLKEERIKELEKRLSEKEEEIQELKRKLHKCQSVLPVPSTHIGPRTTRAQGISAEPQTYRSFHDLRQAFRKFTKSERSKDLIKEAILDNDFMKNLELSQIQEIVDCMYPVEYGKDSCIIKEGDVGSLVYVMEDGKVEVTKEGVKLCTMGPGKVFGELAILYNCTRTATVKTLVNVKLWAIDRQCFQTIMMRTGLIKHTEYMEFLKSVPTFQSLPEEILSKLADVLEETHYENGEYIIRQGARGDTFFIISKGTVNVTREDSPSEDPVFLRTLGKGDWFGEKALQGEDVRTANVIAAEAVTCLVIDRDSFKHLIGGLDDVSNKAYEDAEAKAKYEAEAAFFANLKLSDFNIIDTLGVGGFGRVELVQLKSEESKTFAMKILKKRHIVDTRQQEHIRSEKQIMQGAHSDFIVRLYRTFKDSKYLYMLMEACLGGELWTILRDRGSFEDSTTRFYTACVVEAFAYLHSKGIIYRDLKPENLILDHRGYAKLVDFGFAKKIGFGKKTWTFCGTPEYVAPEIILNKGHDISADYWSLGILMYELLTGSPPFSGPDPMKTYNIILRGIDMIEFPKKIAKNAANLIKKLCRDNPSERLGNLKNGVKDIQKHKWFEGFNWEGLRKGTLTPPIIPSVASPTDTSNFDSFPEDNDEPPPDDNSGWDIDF
Sphingosine 1-phosphate receptor 1, sequence (P21453 whole entry): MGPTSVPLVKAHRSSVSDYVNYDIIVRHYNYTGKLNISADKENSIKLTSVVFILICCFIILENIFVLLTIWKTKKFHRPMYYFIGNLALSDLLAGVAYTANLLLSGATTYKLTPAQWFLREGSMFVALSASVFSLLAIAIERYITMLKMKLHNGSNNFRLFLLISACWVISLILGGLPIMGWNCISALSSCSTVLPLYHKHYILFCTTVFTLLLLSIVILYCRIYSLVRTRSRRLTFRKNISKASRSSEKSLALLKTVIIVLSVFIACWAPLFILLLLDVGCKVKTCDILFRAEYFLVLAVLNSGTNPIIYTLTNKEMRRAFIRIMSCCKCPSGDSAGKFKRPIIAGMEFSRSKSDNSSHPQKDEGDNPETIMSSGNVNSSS
Fibroblast growth factor receptor 3, sequence (P22607 whole entry): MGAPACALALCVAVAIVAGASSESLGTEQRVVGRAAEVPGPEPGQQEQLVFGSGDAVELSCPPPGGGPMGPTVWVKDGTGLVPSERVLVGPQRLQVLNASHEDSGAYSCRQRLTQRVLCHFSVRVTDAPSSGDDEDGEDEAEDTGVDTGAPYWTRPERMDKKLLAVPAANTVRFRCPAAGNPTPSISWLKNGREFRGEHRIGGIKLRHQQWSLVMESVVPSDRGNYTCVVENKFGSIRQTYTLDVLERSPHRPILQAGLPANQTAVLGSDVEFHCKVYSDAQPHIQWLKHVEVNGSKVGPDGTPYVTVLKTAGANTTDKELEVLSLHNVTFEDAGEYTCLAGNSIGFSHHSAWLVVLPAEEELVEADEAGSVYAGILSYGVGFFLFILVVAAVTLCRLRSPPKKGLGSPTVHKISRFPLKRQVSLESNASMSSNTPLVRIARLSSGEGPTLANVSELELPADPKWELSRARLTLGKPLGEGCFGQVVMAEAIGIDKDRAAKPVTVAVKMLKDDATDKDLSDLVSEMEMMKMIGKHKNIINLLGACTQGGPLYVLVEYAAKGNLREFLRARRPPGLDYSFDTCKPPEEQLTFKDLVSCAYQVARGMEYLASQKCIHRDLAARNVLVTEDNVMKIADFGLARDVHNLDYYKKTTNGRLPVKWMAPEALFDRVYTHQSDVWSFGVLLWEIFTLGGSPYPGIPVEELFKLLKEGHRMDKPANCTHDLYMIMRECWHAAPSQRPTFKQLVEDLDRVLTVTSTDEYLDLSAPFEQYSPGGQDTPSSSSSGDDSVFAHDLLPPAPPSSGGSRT
Ribosomal protein S6 kinase alpha-3, sequence (P51812 whole entry): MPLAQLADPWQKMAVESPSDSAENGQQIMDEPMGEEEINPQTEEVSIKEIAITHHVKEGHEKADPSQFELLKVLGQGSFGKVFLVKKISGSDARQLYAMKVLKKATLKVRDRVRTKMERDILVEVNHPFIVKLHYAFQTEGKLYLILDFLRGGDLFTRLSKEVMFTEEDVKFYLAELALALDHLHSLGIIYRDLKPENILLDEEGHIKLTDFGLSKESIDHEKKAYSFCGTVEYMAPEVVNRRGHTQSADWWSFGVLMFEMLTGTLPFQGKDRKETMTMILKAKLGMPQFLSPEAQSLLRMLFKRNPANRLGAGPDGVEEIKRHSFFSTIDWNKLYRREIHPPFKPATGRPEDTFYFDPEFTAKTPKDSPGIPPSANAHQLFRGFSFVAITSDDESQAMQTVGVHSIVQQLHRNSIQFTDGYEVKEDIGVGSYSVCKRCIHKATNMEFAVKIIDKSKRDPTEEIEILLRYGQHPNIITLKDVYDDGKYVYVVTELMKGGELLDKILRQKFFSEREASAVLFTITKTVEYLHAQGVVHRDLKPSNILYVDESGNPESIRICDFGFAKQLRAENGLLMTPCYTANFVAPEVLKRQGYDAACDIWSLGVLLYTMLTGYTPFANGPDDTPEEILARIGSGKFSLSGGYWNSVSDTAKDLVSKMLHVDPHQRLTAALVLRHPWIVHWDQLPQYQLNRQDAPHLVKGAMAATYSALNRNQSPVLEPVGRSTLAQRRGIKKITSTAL
Proto-oncogene tyrosine-protein kinase Src, sequence (P12931 2-536 limits assumed): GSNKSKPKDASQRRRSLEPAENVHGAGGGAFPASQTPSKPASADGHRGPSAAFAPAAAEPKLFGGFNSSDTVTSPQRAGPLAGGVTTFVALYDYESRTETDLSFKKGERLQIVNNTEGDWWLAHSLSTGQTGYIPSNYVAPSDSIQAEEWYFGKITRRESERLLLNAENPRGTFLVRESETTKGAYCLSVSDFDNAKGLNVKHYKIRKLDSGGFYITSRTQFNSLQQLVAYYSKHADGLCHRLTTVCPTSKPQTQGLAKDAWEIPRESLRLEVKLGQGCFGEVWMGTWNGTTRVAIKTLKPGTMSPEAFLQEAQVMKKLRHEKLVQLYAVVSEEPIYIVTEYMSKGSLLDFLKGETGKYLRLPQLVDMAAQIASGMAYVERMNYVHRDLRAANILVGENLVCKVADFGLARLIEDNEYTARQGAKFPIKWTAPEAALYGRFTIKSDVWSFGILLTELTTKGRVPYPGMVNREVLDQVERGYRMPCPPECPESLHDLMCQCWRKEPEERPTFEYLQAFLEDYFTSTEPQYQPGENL

SMILES: Cc1ccc(Nc2cc(C)nn2-c2nc(C)cc(O)n2)cc1
- EC50 (BJ): 2940 nM (inconclusive)
- IC50 [1]: 764 nM (active)

- Ki [2]: > 10000 nM (inactive)
- Ki [3]: > 1580 nM (inactive)
- Ki [4]: > 1260 nM (inactive)
- Ki [5]: > 7940 nM (inactive)
- Ki [6]: > 2000 nM (inactive)
- Ki [7]: > 3980 nM (inactive)
- Ki [8]: > 2000 nM (inactive)
- Ki [9]: > 2000 nM (inactive)
- Ki [10]: 63.1 nM (active)
- Ki [11]: > 1580 nM (inactive)
- Ki [12]: > 1580 nM (inactive)
- Ki [13]: 1000 nM (active)
- Ki (Aurora kinase B): 2510 nM (active)
SMILES: O=C1NC(=S)SC1=C1C(=O)Nc2ccc(Br)cc21

SMILES: Cc1ccc(C(=O)c2c(C)oc3c2C(=O)C(=O)c2ccccc2-3)cc1
- IC50 (Hexokinase HKDC1): 6940 nM (active)

SMILES: O=C1C(O)=C/C(=N\c2ccccc2O)c2ccccc21
- IC50 (HEK293): > 20000 nM (inactive)

SMILES: Cc1cnc(NC(=O)c2sc3ccccc3c2Cl)s1
- EC50 (cells): > 67500 nM (inactive)
